Experimental findings from DBAASP are described below.

≈ marks a conversion by molar mass, not a printed value.

Holding throughout (assay): ≥ marks a high value that may be exact or a test limit, other limits are often not marked, values filed in µg/mL are converted to µM
Experiment [1] has as its system Escherichia coli ATCC 11775.
Experiment [2] has as its system Micrococcus luteus ATCC 49732.
Experiment [3] deals with Staphylococcus aureus ATCC 12600.
The next experiment relates to Bacillus subtilis 168 HT.
Experiment [4] concerns Escherichia coli K12 MG1655.
Experiment [5] concerns Candida albicans ATCC 14053.
The subject of a further experiment is Escherichia coli MG1655.
The test system of experiment [6] is Staphylococcus aureus ATCC BAA-1556.
Experiment [7] relates to Candida albicans ATCC 10231.
The test system of experiment [8] is Enterococcus faecalis PCM 2673.
Experiment [9] has as its system Escherichia coli ATCC 25922.
Experiment [10] relates to Pseudomonas aeruginosa ATCC 9027.
For experiment [11], the system named is Staphylococcus aureus ATCC 25923.
Experiment [12] relates to Bacillus subtilis ATCC 6633.
Experiment [13] deals with Klebsiella pneumoniae ATCC 27736.
In experiment [14] the test system is Pseudomonas aeruginosa ATCC BAA-427.

By MIC is commonly meant the lowest concentration that inhibits growth of the organism. Read a high MIC as weaker potency.

On to `CC[C@H](C)[C@H](NC(=O)[C@H](C)NC(=O)[C@H](C)NC(=O)[C@H](CCC(=O)O)NC(=O)[C@H](CCCCN)NC(=O)CNC(=O)[C@@H](NC(=O)[C@H](CC(N)=O)NC(=O)[C@H](CCCCN)NC(=O)[C@@H](NC(=O)[C@@H](NC(=O)[C@H](CO)NC(=O)[C@H](Cc1c[nH]c2ccccc12)NC(=O)[C@H](CC(C)C)NC(=O)CN)[C@@H](C)O)[C@@H](C)CC)C(C)C)C(=O)N[C@@H](C)C(=O)N[C@@H](C)C(=O)NCC(=O)N[C@@H](CCCCN)C(=O)N[C@@H](C)C(=O)N[C@H](C(=O)N[C@@H](CC(C)C)C(=O)NCC(=O)N[C@@H](CO)C(=O)N[C@@H](CC(C)C)C(N)=O)C(C)C` [GLWSTIKNVGKEAAIAAGKAVLGSL], for which the MIC worked out at 0.5 µM (≈ 1.23 µg/mL) in [1], 2 µM (≈ 4.91 µg/mL) in [2] and 0.5 µM (≈ 1.23 µg/mL) in experiment [3].

As for `CC[C@H](C)[C@H](NC(=O)[C@H](CCC(N)=O)NC(=O)[C@@H](NC(=O)[C@@H](N)CC(C)C)C(C)C)C(=O)NCC(=O)N[C@H](C(=O)N[C@@H](CCCCN)C(=O)N[C@H](C(=O)N[C@H](C(=O)NCC(=O)N[C@H](C(=O)NCC(=O)N[C@@H](CCCN=C(N)N)C(=O)N[C@@H](CC(N)=O)C(=O)N[C@@H](Cc1ccc(O)cc1)C(=O)N[C@@H](C)C(=O)N[C@@H](C)C(=O)N[C@@H](Cc1cnc[nH]1)C(=O)O)C(C)C)C(C)C)[C@@H](C)CC)[C@@H](C)O` [LVQIGTKIVGVGRNYAAH], the MIC (with Bacillus subtilis 168 HT; in [4]) was at least 33.8 µM throughout.

For the compound `CC(C)[C@H](NC(=O)[C@H](C)NC(=O)[C@@H](NC(=O)CNC(=O)[C@@H]1CCCN1)[C@@H](C)O)C(=O)N[C@@H](C)C(=O)N[C@@H](CCCCN)C(=O)O` [PGTAVAK], the MIC in experiment [5], in [1], in experiment [2] and in experiment [3] was at least 97 µM throughout.

With `CC[C@H](C)[C@H](NC(=O)[C@H](CCCN=C(N)N)NC(=O)[C@H](CCSC)NC(=O)[C@@H](NC(=O)[C@H](CCCN=C(N)N)NC(=O)[C@@H](N)Cc1ccccc1)[C@@H](C)CC)C(=O)N[C@@H](CC(C)C)C(=O)N[C@@H](CCCN=C(N)N)C(=O)N[C@H](C(=O)N[C@@H](CC(C)C)C(=O)N[C@@H](CCCCN)C(=O)N[C@@H](CC(C)C)C(=O)O)C(C)C` [FRIMRILRVLKL], the minimal inhibitory concentration (MIC) in the experiment on Bacillus subtilis 168 HT and with Escherichia coli MG1655 was 10.3 µM (≈ 16 µg/mL) in each case.

Take `CC[C@H](C)[C@H](NC(=O)[C@H](Cc1c[nH]c2ccccc12)NC(=O)[C@H](CCCN=C(N)N)NC(=O)[C@H](CCCN=C(N)N)NC(=O)[C@H](Cc1c[nH]c2ccccc12)NC(=O)[C@@H](N)CC(C)C)C(=O)N[C@@H](CCCN=C(N)N)C(=O)N[C@@H](Cc1c[nH]c2ccccc12)C(=O)N[C@@H](CC(C)C)C(N)=O` [LWRRWIRWL]: the MIC in experiment [6] was determined as 12.5 µM (≈ 17.3 µg/mL).

`CC[C@H](C)[C@H](NC(=O)[C@H](CCCCN)NC(=O)[C@H](CCCCN)NC(=O)[C@H](C)NC(=O)[C@@H](NC(=O)[C@H](CC(=O)O)NC(=O)[C@H](Cc1ccccc1)NC(=O)[C@H](CC(C)C)NC(=O)CN)[C@@H](C)CC)C(=O)N[C@@H](C)C(=O)N[C@@H](CCC(=O)O)C(=O)N[C@@H](CO)C(=O)N[C@@H](Cc1ccccc1)C(N)=O` [GLFDIAKKIAESF]: the MIC is 178 µM (≈ 256 µg/mL) in [7]; at least 178 µM in experiment [8]; 356 µM (≈ 512 µg/mL) in experiment [9]; above 356 µM in [10]; above 356 µM in [11].

For the compound `CC(C)[C@H](NC(=O)[C@H](C)NC(=O)[C@@H](NC(=O)[C@H](C)NC(=O)[C@@H]1CCCN1)[C@@H](C)O)C(=O)N[C@@H](Cc1ccccc1)C(=O)N[C@@H](CCCCN)C(=O)O` [PATAVFK], the MIC in experiment [5] is at least 303 µM; in experiment [1], at least 101 µM; in [2], at least 910 µM; in experiment [3], at least 303 µM.

On to `CC[C@H](C)[C@H](NC(=O)[C@H](CCCCN)NC(=O)[C@@H](N)Cc1c[nH]c2ccccc12)C(=O)N[C@@H](Cc1ccccc1)C(=O)N[C@@H](CCCCN)C(=O)N[C@@H](CC(C)C)C(=O)N[C@@H](CCCCN)C(=O)N[C@@H](CC(C)C)C(=O)N[C@@H](CCCN=C(N)N)C(=O)N[C@@H](CCSC)C(=O)N[C@@H](CC(C)C)C(=O)N[C@@H](Cc1c[nH]c2ccccc12)C(=O)O` [WKIFKLKLRMLW], for which the MIC in the experiment with Bacillus subtilis 168 HT is at least 38.5 µM; with Escherichia coli MG1655, at least 77 µM.

Take `CC[C@H](C)[C@H](NC(=O)[C@H](CCCCN)NC(=O)[C@H](CCCCN)NC(=O)[C@@H](NC(=O)[C@@H](NC(=O)[C@H](CC(=O)O)NC(=O)[C@H](Cc1ccccc1)NC(=O)[C@H](CC(C)C)NC(=O)CN)[C@@H](C)CC)[C@@H](C)CC)C(=O)N[C@@H](C)C(=O)N[C@@H](CCC(=O)O)C(=O)N[C@@H](CO)C(=O)N[C@@H](C)C(N)=O` [GLFDIIKKIAESA]: the minimum inhibitory concentration (MIC) in experiment [7] was 365 µM (≈ 512 µg/mL); in experiment [8], at least 91.1 µM; in [9] it was 91.1 µM (≈ 128 µg/mL); in experiment [10], above 365 µM; in experiment [11], above 365 µM.

In experiment [6], `CC[C@H](C)[C@H](NC(=O)[C@H](Cc1c[nH]c2ccccc12)NC(=O)[C@H](CCCN=C(N)N)NC(=O)[C@H](CCCN=C(N)N)NC(=O)[C@H](Cc1c[nH]c2ccccc12)NC(=O)[C@@H](N)CCCCN)C(=O)N[C@@H](CC(C)C)C(=O)N[C@@H](Cc1c[nH]c2ccccc12)C(=O)N[C@@H](CC(C)C)C(N)=O` [KWRRWILWL] registered an MIC of 12.5 µM (≈ 16.9 µg/mL).

For `CC[C@H](C)[C@H](NC(=O)CNC(=O)[C@H](CCCN=C(N)N)NC(=O)[C@H](Cc1ccccc1)NC(=O)[C@H](C)NC(=O)[C@H](Cc1cnc[nH]1)NC(=O)[C@H](Cc1cnc[nH]1)NC(=O)[C@H](Cc1ccccc1)NC(=O)[C@@H](N)Cc1ccccc1)C(=O)N[C@H](C(=O)N[C@@H](Cc1cnc[nH]1)C(=O)N[C@H](C(=O)NCC(=O)N[C@@H](CCCCN)C(=O)N[C@H](C(=O)N[C@H](C(=O)N[C@@H](Cc1cnc[nH]1)C(=O)N[C@@H](CCCN=C(N)N)C(=O)N[C@@H](CC(C)C)C(=O)N[C@H](C(=O)N[C@H](C(=O)NCC(N)=O)[C@@H](C)O)C(C)C)[C@@H](C)CC)[C@@H](C)O)C(C)C)C(C)C` [FFHHAFRGIVHVGKTIHRLVTG], the figures for the MIC in [12], in [13] and in experiment [14] were 16 µM (≈ 40.5 µg/mL), 12 µM (≈ 30.3 µg/mL) and 20 µM (≈ 50.6 µg/mL), respectively.

`CC[C@H](C)[C@H](NC(=O)[C@H](Cc1c[nH]c2ccccc12)NC(=O)[C@H](CCCN=C(N)N)NC(=O)[C@H](CCCN=C(N)N)NC(=O)[C@H](Cc1c[nH]c2ccccc12)NC(=O)[C@@H](N)CCCCN)C(=O)N[C@@H](CCCN=C(N)N)C(=O)N[C@@H](C)C(=O)N[C@@H](CC(C)C)C(N)=O` [KWRRWIRAL]: the MIC in experiment [6] worked out at 25 µM (≈ 32.1 µg/mL).
